Patent US20120321565A1, “PHARMACEUTICAL COMPOSITIONS COMPRISING 17ALPHA-FURANYLESTERS OF 17BETA-CARBOTHIATE ANDROSTANES WITH A MUSCARINIC RECEPTOR ANTAGONIST” (GlaxoSmithKline Intellectual Property Management Limited, priority 2002, published 2012)

Experiments:
[1] = Pharmacokinetics after intravenous administration in the anaesthetised pig; format: in vivo; settings: for clearance, compound (I) vs fluticasone propionate (in words): intravenous 0.1 mg/kg; for pharmacokinetic parameters, compound (I) vs fluticasone propionate (in words): intravenous mixture of the two compounds at 0.1 mg/kg
Source text: The clearance of these two glucocorticoids is similar is this experimental pig model.

[2] = biological target: T1, glucocorticoid receptor (Homo sapiens, UniProt P04150); assay: In vitro functional glucocorticoid assays (metabolite vs parent); format: cell-based
T1 sequence (P04150 1-777): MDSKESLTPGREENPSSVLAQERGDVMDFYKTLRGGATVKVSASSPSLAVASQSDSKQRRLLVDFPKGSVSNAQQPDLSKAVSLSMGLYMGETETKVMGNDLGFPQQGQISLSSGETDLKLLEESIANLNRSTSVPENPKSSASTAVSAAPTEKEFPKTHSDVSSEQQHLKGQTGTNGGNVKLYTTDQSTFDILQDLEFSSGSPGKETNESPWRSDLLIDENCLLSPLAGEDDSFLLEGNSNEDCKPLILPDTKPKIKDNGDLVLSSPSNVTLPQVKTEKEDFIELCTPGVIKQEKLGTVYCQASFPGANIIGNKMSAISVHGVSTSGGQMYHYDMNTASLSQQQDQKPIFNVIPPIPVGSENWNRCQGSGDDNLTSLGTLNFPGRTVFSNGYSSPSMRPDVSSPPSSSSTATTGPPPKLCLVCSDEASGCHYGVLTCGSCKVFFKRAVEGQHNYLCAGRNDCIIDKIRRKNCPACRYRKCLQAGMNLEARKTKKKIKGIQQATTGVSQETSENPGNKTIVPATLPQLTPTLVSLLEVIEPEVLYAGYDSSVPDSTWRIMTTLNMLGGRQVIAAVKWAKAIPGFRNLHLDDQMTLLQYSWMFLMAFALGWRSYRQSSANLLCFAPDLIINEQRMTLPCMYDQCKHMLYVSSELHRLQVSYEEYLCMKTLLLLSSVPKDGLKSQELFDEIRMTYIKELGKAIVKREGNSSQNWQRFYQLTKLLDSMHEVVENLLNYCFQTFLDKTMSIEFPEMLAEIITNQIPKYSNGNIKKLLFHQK
Source text: Compound (I) undergoes highly efficient hepatic metabolism to yield the 17-β carboxylic acid (X) as the sole major metabolite in rat and human in vitro systems.

[3] = system: NFκB; assay: Transrepression (NFκB): firefly luciferase NFκB reporter in TNFα-stimulated A549 cells; format: cell-based; settings: Homo sapiens, TNFα 0.5 ng/ml, read-out: Transrepression (NFκB) ED50
Source text: The glucocorticoid receptor (GR) can function in at least two distinct mechanisms, by upregulating gene expression through the direct binding of GR to specific sequences in gene promotors, and by downregulating gene expression that is being driven by other transcription factors (such as NFκB or AP-1) through their direct interaction with GR.
The first cell line contains the firefly luciferase reporter gene under the control of a synthetic promoter that specifically responds to activation of the transcription factor NFκB when stimulated with TNFα. The second cell line contains the renilla luciferase reporter gene under the control of a synthetic promotor that comprises 3 copies of the consensus glucocorticoid response element, and which responds to direct stimulation by glucocorticoids. Simultaneous measurement of transactivation and transrepression was conducted by mixing the two cell lines in a 1:1 ratio in 96 well plate (40,000 cells per well) and growing overnight at 37° C. Test compounds were dissolved in DMSO, and added to the cells at a final DMSO concentration of 0.7%. After incubation for 1 h 0.5 ng/ml TNFα (R&D Systems) was added and after a further 15 hours at 37° C., the levels of firefly and renilla luciferase were measured using the Packard Firelite kit following the manufacturers' directions. Dose response curves were constructed from which EC50 values were determined.

SMILES	clearance, compound (I) vs fluticasone propionate (in words) [1]	pharmacokinetic parameters, compound (I) vs fluticasone propionate (in words) [1]	fold less active than the parent compound [2] [fold]	EC50 [3] [nM]
CCC(=O)O[C@]1(C(=O)SCF)[C@H](C)C[C@H]2[C@@H]3C[C@H](F)C4=CC(=O)C=C[C@]4(C)[C@@]3(F)[C@@H](O)C[C@@]21C [Fluticasone propionate, 6α, 9α-Difluoro-17α-(1-oxopropoxy)-11β-hydroxy-16α-methyl-3-oxo-androsta-1,4-diene-17β-carbothioic acid S-fluoromethyl ester, reference compound]	similar	the same	–	–
C[C@@H]1CC2C3C[C@H](F)C4=CC(=O)C=C[C@]4(C)[C@@]3(F)[C@@H](O)C[C@]2(C)[C@@]1(OC(=O)c1ccco1)C(=O)O (stereo partly drawn) [Metabolite (X)]	–	–	> 1000	> 1000
C[C@@H]1CC2C3C[C@H](F)C4=CC(=O)C=C[C@]4(C)[C@@]3(F)[C@@H](O)C[C@]2(C)[C@@]1(OC(=O)c1ccco1)C(=O)SCF (stereo partly drawn) [Compound of Formula (I), 6α, 9α-Difluoro-17α-[(2-furanylcarbonyl)oxy]-11β-hydroxy-16α-methyl-3-oxo-androsta-1,4-diene-17β-carbothioic acid S-fluoromethyl ester]	similar	the same	–	–
